Measurements: patent publication US9018211B2, “Inhibitors of the renal outer medullary potassium channel” (Merck Sharp & Dohme Corp., priority 2009, dated 2015)

How the values were obtained:
Format in all cases: cell-based
[1] = target: hROMK1 (Kir1.1) (Homo sapiens (Human), UniProt P48048); test: 86Rb+ Efflux Assay; settings: CHO-DHFR- cells stably expressing hROMK1; 35 min incubation
Method: (§1) Several assays may be used to measure functional inhibition of the ROMK channel by compounds of the instant invention. One primary assay that can be used is a functional ^86Rb^+ efflux assay that measures the ability of ROMK to permeate ^86Rb^+, in the absence or presence of test compound. Under control conditions, cells loaded with ^86Rb^+ and incubated in Rb^+-free medium display a time-dependent efflux of the isotope, the rate of which depends on number of functional channels. […] This assay has been established with cell lines expressing either human, rat or dog ROMK channels, and can operate in 96- or 384-well format. Importantly, the human, rat, and dog ^86Rb^+ efflux assays can be carried out in the presence of up to 100% serum allowing, therefore, an accurate estimation of the effect of protein binding on the inhibitory activity of compounds of interest. Another ROMK functional assay makes use of the ability of thallium to permeate through open ROMK channels and increase the fluorescence of a dye previously loaded into the cells. Under control conditions, cells loaded with dye and exposed to thallium-containing medium display a time-dependent increase in fluorescence, the rate of which depends on number of functional channels. When cells are incubated in the presence of a channel inhibitor, the increase in fluorescence is attenuated in a concentration-dependent manner, and IC50 values of inhibition by compounds can be accurately determined. This assay has been established with cell lines expressing either human, or rat ROMK channels, and operates in 384-well format. Another assay for evaluation of the compounds of the instant invention and for evaluation of mechanism of action of compounds of Formula I relies on the measurement of the electrical current that is generated as potassium permeates through the channel. For these electrophysiological experiments, three different platforms, IonWorks, QPatch, or manual patch clamp, are used, depending on the experimental protocol under consideration. IonWorks operates in a 384-well format and allows accurate determination of IC50 values for inhibitors.

[2] = target: hROMK (hKir1.1) (Homo sapiens (Human), UniProt P48048); test: Thallium Flux Assay; settings: HEK293 cells stably expressing hROMK; FLIPR-Tetra, 30 min incubation
Method: as §1
To dislodge the cell, gently bang the side of the flask with your hand. […] Centrifuge at 1,500 rpm for 6 min followed by resuspension in complete growth media and determine cell concentration. […] Under ideal growth conditions and appropriate tissue culture practices, this cell line is stable for 40-45 passages.
FluxOR Kit Components (Invitrogen F10017)
• FluxOR™ Reagent (Component A) • FluxOR™ Assay Buffer (Component B)—10× Concentrate • PowerLoad™ Concentrate (Component C)—100× Concentrate • Probenecid (Component D)—Lyophilized sample is kept at −20° C. Water soluble, 100× after solubilization in 1 ml water. […] Store at 4° C. • Thallium sulfate (Tl2SO4) Concentrate (Component G)—50 mM in water. […] Can be stored at room temperature • Stimulant Buffer (prepared at 5× final concentration in 1× FluxOR™ Chloride-Free Buffer): 7.5 mM Thallium sulfate and 0.75 mM Potassium sulfate (to give a final assay concentration of 3 mM Thallium/0.3 mM Potassium). Store at 4° C. when not in use. If kept sterile, this solution is good for months.

[3] = target: Kir1.1 (ROMK1) (Homo sapiens (Human), UniProt P48048); test: ROMK Electrophysiology Assay (IonWorks Quattro whole cell voltage clamp); settings: Chinese hamster ovary cells stably expressing Kir1.1; block at voltage step to 0 mV, 6 min compound incubation
Method: as §1
Chinese hamster ovary cells stably expressing Kir1.1 channels were maintained in T-75 flasks in cell culture media in a humidified 10% CO2 incubator at 37° C. Prior to an experiment, Kir1.1 expression was induced by overnight incubation with 1 mM sodium butyrate. […] After centrifugation, the cell pellet was resuspended in approximately 4.0 ml of bath solution and placed in the IonWorks instrument. The intracellular solution consisted of (in mM): 80 K gluconate, 40 KCl, 20 KF, 3.2 MgCl2, 3 EGTA, 5 Hepes, pH 7.4. […] Current amplitudes were measured using the IonWorks software.

hROMK (hKir1.1), sequence (P48048 whole entry): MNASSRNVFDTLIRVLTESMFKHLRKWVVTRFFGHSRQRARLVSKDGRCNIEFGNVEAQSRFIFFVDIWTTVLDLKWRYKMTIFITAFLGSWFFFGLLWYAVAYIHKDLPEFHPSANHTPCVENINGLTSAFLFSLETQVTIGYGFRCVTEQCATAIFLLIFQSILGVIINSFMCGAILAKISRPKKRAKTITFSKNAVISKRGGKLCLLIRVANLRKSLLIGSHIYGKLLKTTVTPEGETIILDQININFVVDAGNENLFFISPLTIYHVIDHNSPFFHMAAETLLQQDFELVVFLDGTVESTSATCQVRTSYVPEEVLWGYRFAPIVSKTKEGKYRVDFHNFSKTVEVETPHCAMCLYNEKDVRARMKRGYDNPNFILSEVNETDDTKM
Kir1.1 (ROMK1), sequence (P48048 whole entry, species assumed): as the sequence (P48048 whole entry) above
hROMK1 (Kir1.1), sequence (P48048 whole entry): as above

Row | Compound | IC50 [1] [nM] | IC50 [2] [nM] | IC50 [3] [nM]
1 | O=C1OCc2c1ccc(C(O)CN1CCN(CC(O)c3ccc4c(c3Cl)COC4=O)CC1)c2Cl (centres unmarked) [Example 5] | 88 | 13 | 7
2 | Cc1c(CCN2CCN(CC(O)c3ccc4c(c3C)COC4=O)CC2)ccc2c1COC2=O (centres unmarked) [Example 12, 5-(1-hydroxy-2-{4-[2-(4-methyl-1-oxo-1,3-dihydro-2-benzofuran-5-yl)ethyl]piperazine-1-yl}ethyl)-4-methyl-2-benzofuran-1(3H)-one] | 46 | 6 | 13
3 | Cc1c(C(O)CN2CCN(CC3CCc4c3ccc3c4COC3=O)CC2)ccc2c1COC2=O (centres unmarked) [Example 20, 6-({4-[2-hydroxy-2-(4-methyl-1-oxo-1,3-dihydro-2-benzofuran-5-yl)ethyl]piperazin-1-yl}methyl)-1,6,7,8-tetrahydro-3H-indeno[4,5-c]furan-3-one] | 36 | 7 | 14
4 | COc1cc(C(O)CN2CCN(CCc3ccc4c(c3C)COC4=O)CC2)c(F)cc1C#N (centres unmarked) [Example 24, 5-fluoro-4-(1-hydroxy-2-{4-[2-(4-methyl-1-oxo-1,3-dihydro-2-benzofuran-5-yl)ethyl]piperazin-1-yl}ethyl)-2-(methyloxy)benzonitrile] | 130 | 26 | 
5 | Cc1c(C(O)CN2CCN(CC3CCc4c3ccc(F)c4C#N)CC2)ccc2c1COC2=O (centres unmarked) [Example 55, 5-fluoro-1-({4-[2-hydroxy-2-(4-methyl-1-oxo-1,3-dihydro-2-benzofuran-5-yl)ethyl]piperazin-1-yl}methyl)-2,3-dihydro-1H-indene-4-carbonitrile] | 47 | 15 | 23
